System: HepaRG
Assay: LDH release cytotoxicity, % of total lysis control; higher = more cytotoxic
Details: 48 h
Summary of the method: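 On collagen I-coated 96-well plates, single-lot HepaRG cells were exposed for 48 h, in duplicate, to eight-point half-log series of test chemicals beginning at 100 µM. The exposure medium was serum-free induction medium with 0.5% DMSO, and total lysis wells got 0.1% Triton X. Resorufin fluorescence from the CytoTox-ONE reaction, read on a Tecan Safire, reported LDH in 50 µL of spent medium. Percent cytotoxicity came from normalization to on-plate vehicle and total lysis controls, averaged over the duplicates.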

CCNC(=O)NC(=O)C(C#N)=NOC [Cymoxanil]
Details	LDH release cytotoxicity [%]
0.03162 µM	-0.835
0.1 µM	-1.41
0.3162278 µM	-2
1 µM	-1.41
3.16228 µM	-2.17
10 µM	-0.806
31.6228 µM	-0.354
100 µM	1.89

OCCC(F)(F)C(F)(F)C(F)(F)C(F)(F)C(F)(F)C(F)(F)F [6:2 Fluorotelomer alcohol]
Details	LDH release cytotoxicity [%]
0.03162 µM	-0.419
0.1 µM	-1.392
0.3162278 µM	-1.67
1 µM	-2.28
3.16228 µM	-1.52
10 µM	-1.12
31.6228 µM	-1.141
100 µM	-0.148

CN1CCCC1c1cccnc1 (configuration not stated) [Nicotine]
Details	LDH release cytotoxicity [%]
0.031623 µM	0.0561
0.1 µM	-2.6
0.316228 µM	-2.47
1 µM	-2.55
3.16228 µM	-2.4
10 µM	-2.95
31.6228 µM	-1.31
100 µM	0.154

CCSC(=O)N(CC)C1CCCCC1 [Cycloate]
Details	LDH release cytotoxicity [%]
0.03162 µM	-0.645
0.1 µM	-0.297
0.3162278 µM	-0.471
1 µM	-0.678
3.16228 µM	0.089
10 µM	0.922
31.6228 µM	0.446
100 µM	1.91

O=P(O)(O)CCCl [Ethephon]
Details	LDH release cytotoxicity [%]
0.03162 µM	-2.07
0.1 µM	-1.57
0.3162278 µM	-2.29
1 µM	-1.94
3.16228 µM	-2.12
10 µM	-1.39
31.6228 µM	-0.276
100 µM	0.34

CCNc1nc(N)nc(Cl)n1 [Deisopropylatrazine]
Details	LDH release cytotoxicity [%]
0.03162 µM	-0.429
0.1 µM	-1.18
0.3162278 µM	-0.471
1 µM	-1.46
3.16228 µM	-0.314
10 µM	-0.765
31.6228 µM	-0.375
100 µM	0.373

N#CSCSc1nc2ccccc2s1 [2-(Thiocyanomethylthio)benzothiazole]
Details	LDH release cytotoxicity [%]
0.03162 µM	-0.587
0.1 µM	-0.847
0.3162278 µM	-0.155
1 µM	-0.646
3.16228 µM	0.021
10 µM	-0.312
31.6228 µM	-0.754
100 µM	1.03

N=C(N)c1ccc(OCCCCCOc2ccc(C(=N)N)cc2)cc1 [Pentamidine isethionate]
Details	LDH release cytotoxicity [%]
0.0276699 µM	-1.83
0.0875 µM	-2.81
0.276699 µM	-2.72
0.875 µM	-3.54
2.76699 µM	-2.52
8.75 µM	19
27.6699 µM	68.9
87.5 µM	73.7

NCc1cccc(C2CCN(C(=O)c3ccc(C#Cc4ccccc4F)o3)CC2)c1 [AVE5638]
Details	LDH release cytotoxicity [%]
0.03162 µM	0.161
0.1 µM	0.0623
0.3162278 µM	0.0711
1 µM	0.0437
3.16228 µM	0.441
10 µM	0.359
31.6228 µM	3.69
100 µM	65.1

CC(C=CC1=C(C)CCCC1(C)C)=CC=CC(C)=CCO [Retinol]
Details	LDH release cytotoxicity [%]
0.03305 µM	-0.586
0.1045 µM	-1.81
0.330458 µM	-1.85
1.045 µM	-1.97
3.30458 µM	-2.34
10.45 µM	-1.67
33.0458 µM	-1.8
104.5 µM	-1.69

Cc1ccc2ncccc2c1 [6-Methylquinoline]
Details	LDH release cytotoxicity [%]
0.03162 µM	-1.09
0.1 µM	-1.74
0.3162278 µM	-0.691
1 µM	-0.702
3.16228 µM	1.12
10 µM	3.62
31.6228 µM	6.32
100 µM	12.7

NC(=O)c1nc(-c2cccc(-c3cc(F)ccc3OCC(F)(F)C(F)(F)F)c2)n[nH]1 [MK-274]
Details	LDH release cytotoxicity [%]
0.03162 µM	-1.29
0.1 µM	-0.429
0.3162278 µM	-0.661
1 µM	-1.07
3.16228 µM	-0.753
10 µM	-0.915
31.6228 µM	0.166
100 µM	86.6

CCC(C)OC(=O)N1CCCCC1CCO (configuration not stated) [Icaridin]
Details	LDH release cytotoxicity [%]
0.03162 µM	6.64
0.1 µM	4.72
0.3162278 µM	4.33
1 µM	5.97
3.16228 µM	5.34
10 µM	2.82
31.6228 µM	8.294
100 µM	9.41

COCC(C)N(C(=O)CCl)c1c(C)csc1C (configuration not stated) [Dimethenamid]
Details	LDH release cytotoxicity [%]
0.031623 µM	-1.73
0.1 µM	-3.31
0.316228 µM	-2.49
1 µM	-2.95
3.16228 µM	-2.64
10 µM	-3.81
31.6228 µM	-2.28
100 µM	0.11

N#Cc1cc(Br)c(O)c(Br)c1 [Bromoxynil]
Details	LDH release cytotoxicity [%]
0.0253 µM	-2.04
0.08 µM	-2.14
0.252982 µM	-2.16
0.8 µM	-1.57
2.52982 µM	-1.26
8 µM	0.434
25.2982 µM	0.49
80 µM	55.4

c1ccc(C(OC2CCCN(CCc3ccc4c(c3)OCO4)C2)c2ccccc2)cc1 (configuration not stated) [Zamifenacin]
Details	LDH release cytotoxicity [%]
0.03162 µM	-1.023
0.1 µM	-1.51
0.3162278 µM	-1.31
1 µM	-1.54
3.16228 µM	-1.68
10 µM	-1.11
31.6228 µM	2
100 µM	51.7

O=C(NS(=O)(=O)C=Cc1ccccc1)c1ccc(F)cc1Cl
Details	LDH release cytotoxicity [%]
0.03162 µM	-0.138
0.1 µM	-1.32
0.3162278 µM	-0.79
1 µM	-2.23
3.16228 µM	-1.4
10 µM	-0.621
31.6228 µM	-0.552
100 µM	1.91

COC(=O)N(C(=O)N1COC2(C(=O)OC)Cc3cc(Cl)ccc3C2=N1)c1ccc(OC(F)(F)F)cc1 (configuration not stated) [Indoxacarb]
Details	LDH release cytotoxicity [%]
0.0253 µM	-0.813
0.08 µM	0.513
0.252982 µM	-1.47
0.8 µM	-0.957
2.52982 µM	-0.16
8 µM	-0.511
25.2982 µM	0.453
80 µM	14.2

CCC(C)N(C)C(=O)c1cc2ccccc2c(-c2ccccc2Cl)n1 (configuration not stated)
Details	LDH release cytotoxicity [%]
0.02008 µM	-1.37
0.0635 µM	-2.28
0.200805 µM	-3.22
0.635 µM	-3.04
2.00805 µM	-2.99
6.35 µM	-2.9
20.0805 µM	-1.43
63.5 µM	7.06

COCC(C)OCC(C)OCC(C)O (configuration not stated) [Tripropylene glycol monomethyl ether]
Details	LDH release cytotoxicity [%]
0.03162 µM	-2.65
0.1 µM	-2.37
0.3162278 µM	-2.65
1 µM	-3.43
3.16228 µM	-2.88
10 µM	-1.77
31.6228 µM	-1.51
100 µM	0.876

COc1cc(-c2nc(NC(=O)c3cc4cc(C)cc(C)c4n3CC(=O)O)sc2CCC2CCCCC2)c(OC)cc1Cl
Details	LDH release cytotoxicity [%]
0.0267212 µM	0.271
0.0845 µM	-0.13
0.267213 µM	-0.107
0.845 µM	0.419
2.67212 µM	-0.184
8.45 µM	37.3
26.7212 µM	67.7
84.5 µM	78.3

Cc1cccc([N+](=O)[O-])c1 [3-Nitrotoluene]
Details	LDH release cytotoxicity [%]
0.0324133 µM	-0.599
0.1025 µM	-1.561
0.324134 µM	-1.45
1.025 µM	-0.805
3.24133 µM	-1.27
10.25 µM	-0.551
32.4133 µM	-0.321
102.5 µM	0.844

C1=Cc2cccc3cccc1c23 [Acenaphthylene]
Details	LDH release cytotoxicity [%]
0.031623 µM	-0.662
0.1 µM	-2.98
0.316228 µM	-2.7
1 µM	-2.28
3.16228 µM	-2.7
10 µM	-2.757
31.6228 µM	-1.56
100 µM	1

NCC1(Cc2noc(=O)[nH]2)CCCCC1
Details	LDH release cytotoxicity [%]
0.03162 µM	-1.45
0.1 µM	-1.66
0.3162278 µM	-1.14
1 µM	-1.29
3.16228 µM	-1.26
10 µM	-1.72
31.6228 µM	-2.07
100 µM	17.4

O=c1[nH]sc2ccccc12 [1,2-Benzisothiazolin-3-one]
Details	LDH release cytotoxicity [%]
0.0327296 µM	-0.0461
0.1035 µM	-0.556
0.327296 µM	-0.331
1.035 µM	-0.299
3.27296 µM	-0.612
10.35 µM	-0.701
32.729574 µM	0.567
103.5 µM	2.85

Cc1ccn2nc(S(=O)(=O)Nc3c(F)cccc3F)nc2n1 [Flumetsulam]
Details	LDH release cytotoxicity [%]
0.03162 µM	-2
0.1 µM	-0.7
0.3162278 µM	-1.43
1 µM	-1.43
3.16228 µM	-1.84
10 µM	0.538
31.6228 µM	0.194
100 µM	1.86

O=C(O)CC(O)C(=O)O (configuration not stated) [Malic acid]
Details	LDH release cytotoxicity [%]
0.03162 µM	-1.2
0.1 µM	-1.77
0.3162278 µM	-1.39
1 µM	-1.28
3.16228 µM	-1.27
10 µM	-1.41
31.6228 µM	-1.33
100 µM	0.326

COc1cc(Cl)c(OC)cc1Cl [Chloroneb]
Details	LDH release cytotoxicity [%]
0.03162 µM	-1.52
0.1 µM	-0.787
0.3162278 µM	-1.49
1 µM	-2.31
3.16228 µM	-1.57
10 µM	-0.979
31.6228 µM	-0.777
100 µM	0.671

CC(C)c1cccc(C(C)C)c1NC(=O)NS(=O)(=O)c1cc(C(C)(C)O)co1
Details	LDH release cytotoxicity [%]
0.03162 µM	0.635
0.1 µM	0.0343
0.3162278 µM	-0.878
1 µM	-1.57
3.16228 µM	-1.32
10 µM	-1.29
31.6228 µM	-1.24
100 µM	-0.335

Reference: the supplement of paper PMC7840683
